US7723326B2, “Heterocyclic amide derivatives as RXR agonists for the treatment of dyslipidemia, hypercholesterolemia and diabetes” (Janssen Pharmaceutica N.V., priority 2005, dated 2010)
Several values for one entry are separate records, joined by “and”; a condition that tells them apart may be missing. Equal values may be shown once.

Tests used:
[1] = system: ABCA1 mRNA in THP-1 cells; assay: ABCA1 bDNA assay (ABCA1 mRNA induction); assay type: cell-based; conditions: Homo sapiens; for EC50: ABCA1 mRNA induction, usually 18-24 hrs
Procedure: THP-1 cells, a human monocytic cell line, were obtained from ATCC and maintained in RPMI (Gibco) supplemented with 10% fetal bovine serum (Gibco), 2mM L-glutamine and 1% antibiotic-antimycotic in 5% CO2 at 37° C. For ABCA1 mRNA induction assays, the cells were pelleted and resuspended in RPMI supplemented with 0.5% charcoal treated serum (Hyclone), 2 mM glutamine and 1% antibiotic-antimycotic. The cells were plated at a density of 40,000 cells/90 μl and incubated as above for at least 4 hours before the initiation of treatments. Compounds were prepared as 10 mM stocks in DMSO. For treatments, the compounds were diluted in medium and 10 μl of 10× stocks were added to the cells at a final concentration 0.1% DMSO. The cells were incubated for the desired amount of time (usually 18-24 hrs) and then lyzed with 50 μl of Quantigene HV bDNA lysis buffer which also contained the ABCA1 bDNA probes (probe sequences shown below): […]

[2] = target: T1, RXR ligand binding domain (accession number X52773) fused with the DNA binding domain of yeast GAL4 (Homo sapiens, UniProt P19793); assay: RXR co-transfection assay (GAL4-LBD luciferase reporter in HEK293 cells); assay type: cell-based; conditions: 16-18 hours
T1 construct: expressed in transfected cells; host or cells: HEK293
T1 sequence (P19793 227-458 limits assumed): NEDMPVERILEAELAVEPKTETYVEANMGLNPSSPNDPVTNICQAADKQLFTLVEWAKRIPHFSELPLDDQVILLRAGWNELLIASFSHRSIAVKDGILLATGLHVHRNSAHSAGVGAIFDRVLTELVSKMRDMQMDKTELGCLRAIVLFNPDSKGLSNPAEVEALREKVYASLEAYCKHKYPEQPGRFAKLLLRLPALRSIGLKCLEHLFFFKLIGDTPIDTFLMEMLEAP
Procedure: The nucleic acid sequence from 676-1464bp (accession number X52773) encoding the ligand binding domains was subcloned into the pM vector (BD Biosciences Clontech, Palo Alto, Calif.) and were fused with the DNA binding domain of yeast GAL4. HEK293 cells were cultured in DMEM/F12 medium supplemented with 10% FBS and 1% 1-glutamine (growth medium). Cells were seeded at a density of 5-10×10^6 cells in 50 ml of growth medium and left overnight, The medium was removed and the cells were washed with 15 ml of OptiMEM serum free medium (Invitrogen Corp). The cells were transfected using OptiMEM serum free medium and DMRIE transfection reagent (Invitrogen Corp). Approximately 10-30 ng of DNA for the different receptors and 5-10 ng of the luciferase reporter (1:1 ratio for RAR and 4:1 ratio for RXR of receptor DNA:reporter DNA) were gently mixed with 51 μl of DMRIE reagent in a total volume of 17 ml of OptiMEM medium. Eighteen hours after transfection, the cells were washed once with growth medium and then incubated for 6 hrs in 30 ml of growth medium. The cells were then trypsinized, and reseeded at a density of 50,000 per well in 96 well plates and left overnight. The medium was replaced with 90 μl of medium containing DMEM/F12 supplemented with 0.5% charcoal-treated FBS (HyClone; Logan, Utah) and 1% glutamine. Compounds or vehicle were added in 10 μl of 10× concentration of compound or vehicle (0.1% dimethyl sulfoxide). The cells were treated for 16-18 hours, lysed and assayed for luciferase activity using the Steady Gio luciferase assay kit (Promega, Madison, Wis.).

EC50 [1]	EC50 [2]	SMILES	Emax at 3 µM ([1]; @3 μM, relative to MX-6054, read-out: ABCA1 % max MX-6054)
> 2000 nM	347 nM	Cc1cc2c(cc1-c1cc(CCC(=O)O)ccc1OC(F)(F)F)N(C(C)C)C(=O)C(C)(C)O2 [Compound 13, 3-[3-(4-Isopropyl-2,2,7-trimethyl-3-oxo-3,4-dihydro-2H-benzo[1,4]oxazin-6-yl)-4-trifluoromethoxy-phenyl]-propionic acid]	
> 2000 nM	719 nM	Cc1cc2c(cc1-c1cc(C3CC3C(=O)O)ccc1OC(F)(F)F)N(C(C)C)C(=O)C(C)(C)O2 (racemic) [Compound 23, 2-[3-(4-Isopropyl-2,2,7-trimethyl-3-oxo-3,4-dihydro-2H-benzo[1,4]oxazin-6-yl)-4-trifluoromethoxy-phenyl]-cyclopropanecarboxylic acid]	64.1%
39.7 nM	151 nM and 180 nM and 189 nM	CCN1C(=O)C(C)(C)Oc2cc(C)c(-c3cc(/C=C/C(=O)O)ccc3OC(F)(F)F)cc21 [Compound 1, 3-[3-(4-Ethyl-2,2,7-trimethyl-3-oxo-3,4-dihydro-2H-benzo[1,4]oxazin-6-yl)-4-trifluoromethoxy-phenyl]-acrylic acid]	
> 2000 nM	> 2000 nM	CCN1C(=O)C(C)(C)Oc2cc(C)c(-c3cc(/C=C/C(=O)O)ccc3OCC(F)(F)F)cc21 [Compound 2, 3-[3-(4-Ethyl-2,2,7-trimethyl-3-oxo-3,4-dihydro-2H-benzo[1,4]oxazin-6-yl)-4-(2,2,2-trifluoro-ethoxy)-phenyl]-acrylic acid]	
